Eleven compounds from patent publication US20250236627A1, “CERTAIN OCTAHYDROFURO[3,4- B]PYRAZINES AS GLP-1 RECEPTOR MODULATORS” (ASTRAZENECA AB, priority 2021, published 2025) can be followed below.

The EC50 is the concentration needed to bring the measured effect to its halfway point. Lower therefore signals a more potent agent.

Test [1] has as its target T1, human GLP-1R receptor (Homo sapiens, UniProt P43220, L260F).
T1 construct: expressed in transfected cells; host or cells: CHO-K1 (ATCC CCL-61)
Briefly: CHOK1 GLP-1R cAMP Assay. Format: cell-based. To be noted: CHO-K1 cell line stably expressing human GLP-1R; HTRF cAMP detection. The protocol: A cell line stably expressing the human GLP-1R receptor (NM_002062.5, including the naturally-occurring variant Leu260Phe) in a CHO-K1 (ATCC® CCL-61™) was used for assay.
GLP-1 Receptor mediated agonist activity was determined in a cell based assay measuring cAMP levels in cells using Homogeneous Time-Resolved Fluorescence (HTRF) cAMP detection kit (CisBio catalog #62AM4PEC, cAMP Gs Dynamic range kit). The cAMP detection method is based on a competitive immunoassay, in which cAMP produced by the cells and cAMP labeled with the dye d2 compete for binding to a Europium-Cryptate-labeled anti-cAMP antibody. The specific HTRF signal is inversely proportional to the concentration of cAMP.
Compounds were added to individual well in 384 well-assay plates (Greiner #784076) using an Echo (LabCyte) dispenser from 10 mM stocks. Varying concentration of compounds were added to wells, and dimethyl sulfoxide was used to normalize each well to a volume of 100 nanoliter. A dose response curve of GLP1(7-36)NH2 (Bachem H-6795) was included in each run. 5 μL of cAMP concentration response standards are applied in specified wells in the assay plates.
Cryo-preserved cells are thawed and resuspended in assay buffer pre-heated to 37° C. (20 mM 2-[4-(2-hydroxyethyl)piperazin-1-yl]ethanesulfonic acid (HEPES) pH 7.4, lx Hank's Balanced Salt Solution (HBSS, Life Technologies #14065) supplemented with 0.1% (w/v) bovine serum albumin (Sigma, A-7030)). Cells were centrifuged at 250*g for 5 min at room temperature, and resuspend in room tempered assay buffer to a final density of 0.16*10^6 cell/mL, to deliver 800 cells/well. 5 μL of assay buffer with 1 mM 3-isobutyl-1-methylxanthin (IBMX; Sigma cat I-7018) was dispensed per well in assay plates using a multidrop combi (Thermo Scientific) subsequently 5 μL of cell suspension was distributed to relevant wells in the assay using a multidrop dispenser. Assay plates were incubated 20 min at room temperature.
Detection reagents, Europium-Cryptate-labeled anti-cAMP antibody and cAMP labeled with the dye d2, are diluted in lysis buffer, provided by the manufacturer. 5 μL of each detection reagent is supplemented to each assay well using a multidrop dispenser. Assay plates are incubated in the dark for at least one hour. The HTRF signal is measured using the HTRF module (excitation: 337 nm, emission A: 665 nm and emission B: 620 nm) in Pherastar FSX (BMG Labtech).
Raw data were converted to pM cAMP using the cAMP standard curve included in each run. Converted data were further analyzed in Genedata Screener (Genedata) and EC50 determinations were made from agonist dose-response curves analyzed with a curve fitting program using a 4-parameter logistic dose response equation (Equation y=A+((B−A)/1+((C/x)^D))) where A is no stimulation, B is full stimulation, C is the EC50 and D is the Hill slope). The percent effect was determined relative to a saturating concentration of a full GLP-1R agonist (GLP1(7-36)NH2 has 100% effect in this assay setup).

Test [2] addresses T2, endogenous human glucagon-like peptide 1 receptor (GLP-1R) (Homo sapiens, UniProt P43220).
T2 construct: endogenous human glucagon-like peptide 1 receptor (GLP-1R) in a pancreatic insulinoma cell line; host or cells: EndoC-βH1 human pancreatic β cell line
Briefly: EndoC cAMP Accumulation Assay. Format: cell-based. The note with it: EndoC-βH1 human pancreatic β cell line; HTRF cAMP assay. From the text: EndoC cAMP Accumulation Assay
A HTRF (Homogeneous Time-Resolved Fluorescence) cAMP assay (cAMP Gs dynamic kit; CisoBio Cat #62AM4PEJ) was used to identify agonists of the endogenous human glucagon-like peptide 1 receptor (GLP-1R) in a pancreatic insulinoma cell line (EndoC-βH1). […] EndoC-βH1 cells have detectable GLP-1R mRNA as detected by qPCR^1. […] The EndoC-βH1 cell line is a valid model of human beta cells and applicable for screenings to identify novel drug target candidates (Mol. Metab., 2018, 8, 144-157). CisBio HTRF cAMP kits are based on a competitive immunoassay using cryptate-labelled anti-cAMP antibody and d2-labeled cAMP. The detection kit is intended for the direct quantitative determination of cAMP. The specific signal (i.e. energy transfer) is inversely proportional to the concentration of cAMP in the standard or sample. Test compounds (10 mM in DMSO) were diluted into assay buffer (HBSS (Sigma #H8264) supplemented with 25 mM HEPES (Gibco #15630, pH 7.4), 0.1% BSA (Sigma #A3059) and 0.5 mM IBMX (Sigma #I7018) included fresh on the day of the assay) into 96 well U-bottom plates (Greiner #650201). Diluted compounds were transferred to ECHO source PP plates (Labcyte #P-05525) and dose response curves were dispensed acoustically using ECHO 550 into black shallow-well u-bottom 384-well HTRF Assay Plates (Corning 4514).
Cryovials of EndoC-H1 (supplied at 1×10e^7 cells/vial) were used directly for screening. The cryovials and were removed from LN2 and thawed rapidly in a 37° C. water bath. The cells were resuspended in assay buffer and centrifuged at 300 g for 5 min. Cells were resuspended in assay buffer at the appropriate concentration, typically at 12e5 cells per mL (3000 cells per well, dependent on cell batch) and 2.5 μL diluted cells were added to all wells of destination plate by Multidrop combi reagent dispenser (Thermofisher). The plates were incubated at room temperature for 30 min. The assay was stopped by adding 2.5 μL anti-cAMP cryptate solution to all wells and 2.5 μL cAMP-d2 solution (both diluted 1:20 in lysis buffer) to columns 1-22 by Combi drop. A volume of 2.5 μL cAMP-d2 solution was added to wells E23 to P24 and 2.5 μL lysis buffer added to wells A23 to D24 by multichannel pipette. The plates were incubated at room temperature for 1 hr and read on an Envision plate reader using excitation wavelength of 320 nm and emission of 590 nm and 660 nm.
Raw data from Envision is converted to % DeltaF according to the manufacturer's instructions. Dose response curves are analysed via 4-Parameter Logistical Analysis and assay plate Z′ values obtained. Samples are graphed as percentage (%) activation plots compared to GIP (1-42, Bachem H-5645) with assay window defined by negative control as basal cell cAMP levels and positive control are defined by maximum GIP (82.5 nM) signal. GLP1 (7-36 amide, Bachem H-6795) dose response curve was included on all plates.
(Time-resolved FRET reads energy transfer from a long-lived donor to a nearby acceptor.)

T2 sequence (P43220 24-463): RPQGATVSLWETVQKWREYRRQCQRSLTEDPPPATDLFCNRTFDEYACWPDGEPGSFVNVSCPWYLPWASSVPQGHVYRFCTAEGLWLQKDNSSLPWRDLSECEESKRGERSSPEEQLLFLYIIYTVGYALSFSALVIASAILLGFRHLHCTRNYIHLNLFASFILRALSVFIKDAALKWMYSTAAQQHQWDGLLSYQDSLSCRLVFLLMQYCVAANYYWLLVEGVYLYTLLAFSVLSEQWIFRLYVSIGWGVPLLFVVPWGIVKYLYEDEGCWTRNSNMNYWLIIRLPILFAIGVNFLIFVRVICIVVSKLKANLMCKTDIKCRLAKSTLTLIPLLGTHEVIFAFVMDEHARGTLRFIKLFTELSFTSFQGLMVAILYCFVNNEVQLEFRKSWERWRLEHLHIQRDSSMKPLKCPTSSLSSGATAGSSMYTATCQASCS
T1 sequence (P43220 24-463 L260F): as the sequence (P43220 24-463) above, with L237F counted along it

For the compound `C[C@]1(c2ccc(Cl)cn2)Oc2cccc(N3CCN(Cc4nc5ccc(C(=O)O)cc5n4CC4(C#N)CC4)[C@H]4COC[C@H]43)c2O1` (single isomer, unassigned) [Example 26], the EC50 in test [1] is 3.6 nM; in test [2], 11 nM.

As to `C[C@]1(c2ccc(Cl)cc2F)Oc2cccc(N3CCN(Cc4nc5c(Cl)cc(C(=O)O)cc5n4C[C@@H]4CCO4)[C@H]4COC[C@H]43)c2O1` (single isomer, unassigned) [Example 15b, 4-Chloro-2-(((4aR*,7aS*)-4-((R*)-2-(4-chloro-2-fluorophenyl)-2-methylbenzo[d][1,3]dioxol-4-yl)hexahydrofuro[3,4-b]pyrazin-1(2H)-yl)methyl)-1-(((S)-oxetan-2-yl)methyl)-1H-benzo[d]imidazole-6-carboxylic acid], the figures for the EC50 in test [1] and in test [2] were 71 nM and 120 nM, respectively.

Regarding `COc1cc(C(=O)O)cc2c1nc(CN1CCN(c3cccc4c3O[C@@](C)(c3ccc(Cl)cc3F)O4)[C@@H]3COC[C@@H]31)n2C[C@@H]1CCO1` (single isomer, unassigned) [Example 3b, 2-(((4aR*,7aS*)-4-((R*)-2-(4-Chloro-2-fluorophenyl)-2-methylbenzo[d][1,3]dioxol-4-yl)hexahydrofuro[3,4-b]pyrazin-1(2H)-yl)methyl)-4-methoxy-1-(((S)-oxetan-2-yl)methyl)-1H-benzo[d]imidazole-6-carboxylic acid], the EC50 in test [1] was found to be 61 nM; in test [2] it was 270 nM.

For the compound `C[C@]1(c2ccc(Cl)cc2F)Oc2cccc(N3CCN(Cc4nc5c(Cl)cc(C(=O)O)cc5n4C[C@@H]4CCO4)[C@H]4COC[C@H]43)c2O1` (single isomer, unassigned) [Example 15c, 4-Chloro-2-(((4aR*,7aS*)-4-((R*)-2-(4-chloro-2-fluorophenyl)-2-methylbenzo[d][1,3]dioxol-4-yl)hexahydrofuro[3,4-b]pyrazin-1(2H)-yl)methyl)-1-(((S)-oxetan-2-yl)methyl)-1H-benzo[d]imidazole-6-carboxylic acid], the EC50 amounted to 150 nM in test [1] and 560 nM in test [2].

As for `C[C@]1(c2ccc(Cl)cc2F)Oc2cccc(N3CCN(Cc4nc5c(F)cc(C(=O)O)cc5n4C[C@@H]4CCO4)[C@H]4COC[C@H]43)c2O1` (single isomer, unassigned) [Example 16c, 2-(((4aR*,7aS*)-4-((R*)-2-(4-Chloro-2-fluorophenyl)-2-methylbenzo[d][1,3]dioxol-4-yl)hexahydrofuro[3,4-b]pyrazin-1(2H)-yl)methyl)-4-fluoro-1-(((S)-oxetan-2-yl)methyl)-1H-benzo[d]imidazole-6-carboxylic acid], the EC50 was 170 nM in test [1] and 440 nM in test [2].

As for `C[C@]1(c2ccc(Cl)cn2)Oc2cccc(N3CCN(Cc4nc5c(Cl)cc(C(=O)O)cc5n4C[C@@H]4CCCO4)[C@H]4COC[C@H]43)c2O1` (single isomer, unassigned) [Example 4b, 4-Chloro-2-(((4aR*,7aS*)-4-((R*)-2-(5-chloropyridin-2-yl)-2-methylbenzo[d][1,3]dioxol-4-yl)hexahydrofuro[3,4-b]pyrazin-1(2H)-yl)methyl)-1-(((S)-tetrahydrofuran-2-yl)methyl)-1H-benzo[d]imidazole-6-carboxylic acid], the EC50 stood at 80 nM in test [1] and 130 nM in test [2].

Regarding `C[C@]1(c2ccc(Cl)cc2F)Oc2cccc(N3CCN(Cc4nc5c(F)cc(C(=O)O)cc5n4C[C@@H]4CCO4)[C@H]4COC[C@H]43)c2O1` (single isomer, unassigned) [Example 16a, 2-(((4aR*,7aS*)-4-((R*)-2-(4-Chloro-2-fluorophenyl)-2-methylbenzo[d][1,3]dioxol-4-yl)hexahydrofuro[3,4-b]pyrazin-1(2H)-yl)methyl)-4-fluoro-1-(((S)-oxetan-2-yl)methyl)-1H-benzo[d]imidazole-6-carboxylic acid], the EC50 worked out at 1.2 nM in test [1] and 2.3 nM in test [2].

`C[C@@]1(c2ccc(Cl)cc2F)Oc2cccc(N3CCN(Cc4nc5c(F)cc(C(=O)O)cc5n4Cc4cccnc4)[C@@H]4COC[C@@H]43)c2O1` (relative stereo) [Example 13c, rel-2-(((4aR,7aS)-4-((R)-2-(4-Chloro-2-fluorophenyl)-2-methylbenzo[d][1,3]dioxol-4-yl)hexahydrofuro[3,4-b]pyrazin-1(2H)-yl)methyl)-4-fluoro-1-(pyridin-3-ylmethyl)-1H-benzo[d]imidazole-6-carboxylic acid]: the values for the EC50 in test [1] and in test [2] were 730 nM and 340 nM, respectively.

`C[C@]1(c2ccc(Cl)cn2)Oc2cccc(N3CCN(Cc4nc5c(Cl)cc(C(=O)O)cc5n4C[C@@H]4CCO4)[C@H]4COC[C@H]43)c2O1` (single isomer, unassigned) [Example 14b, 4-Chloro-2-(((4aR*,7aS*)-4-((R*)-2-(5-chloropyridin-2-yl)-2-methylbenzo[d][1,3]dioxol-4-yl)hexahydrofuro[3,4-b]pyrazin-1(2H)-yl)methyl)-1-(((S)-oxetan-2-yl)methyl)-1H-benzo[d]imidazole-6-carboxylic acid]: the values for the EC50 in test [1] and in test [2] were 170 nM and 600 nM, respectively.

For `C[C@]1(c2ccc(Cl)cn2)Oc2cccc(N3CCN(Cc4nc5c(F)cc(C(=O)O)cc5n4C[C@@H]4CCO4)[C@H]4COC[C@H]43)c2O1` (single isomer, unassigned) [Example 9c, 2-((4aR*,7aS*)-4-((R*)-2-(5-Chloropyridin-2-yl)-2-methylbenzo[d][1,3]dioxol-4-yl)hexahydrofuro[3,4-b]pyrazin-1(2H)-yl)methyl)-4-fluoro-1-(((S)-oxetan-2-yl)methyl)-1H-benzo[d]imidazole-6-carboxylic acid], the values for the EC50 in test [1] and in test [2] were 570 nM and 1100 nM, respectively.

Consider `C[C@]1(c2ccc(Cl)cc2F)Oc2cccc(N3CCN(Cc4nc5ccc(C(=O)O)cc5n4CCn4cccn4)[C@H]4COC[C@H]43)c2O1` (single isomer, unassigned) [Example 7b], for which the EC50 in test [1] amounted to 380 nM.
